Experimental data reported in ChEMBL document CHEMBL1129446, “Hydroxamic acid-based bisubstrate analog inhibitors of Ras farnesyl protein transferase” (J Med Chem, 1996).

The compounds below were run against Protein farnesyltransferase (Sus scrofa) (assay: In vitro activity against Protein farnesyltransferase). Details: read-out: I50.

**Q.** With `CC(C)C[C@H](NC(=O)[C@@H](NC(=O)[C@@H](N)CC(=O)N(C)O)C(C)C)C(=O)N[C@@H](CO)C(=O)O` as the compound, how does the IC50 read?
**A.** Its IC50 is > 360 µM.

**Q.** `CC(C)C[C@H](NC(=O)[C@@H](NC(=O)[C@H](CC(=O)N(C)O)NC(=O)OC(C)(C)C)C(C)C)C(=O)N[C@@H](CO)C(=O)O` was tested. Which IC50 did it give?
**A.** Its IC50 is > 360 µM.

**Q.** With `CSCC[C@@H](NC(=O)[C@@H](NC(=O)[C@@H](NC(=O)CC(=O)N(O)C/C=C(\C)CC/C=C(\C)CCC=C(C)C)C(C)C)C(C)C)C(=O)O` as the compound, how does the IC50 read?
**A.** Its IC50 is 30.5 µM.

**Q.** How did the IC50 turn out when `CSCC[C@H](NC(=O)[C@@H](NC(=O)[C@@H](NC(=O)CC(=O)N(O)C/C=C(\C)CC/C=C(\C)CCC=C(C)C)C(C)C)C(C)C)C(=O)O` was run?
**A.** The IC50 was 0.33 µM.

**Q.** For `CC(C)C[C@H](NC(=O)[C@@H](NC(=O)[C@H](CC(=O)N(C)OCc1ccccc1)NC(=O)OC(C)(C)C)C(C)C)C(=O)N[C@@H](CO)C(=O)O`, which IC50 is on record?
**A.** Its IC50 is > 360 µM.

**Q.** For `CC(C)=CCC/C(C)=C/CC/C(C)=C/CN(O)C(=O)CCC(=O)N[C@H](C(=O)N[C@@H](CC(C)C)C(=O)N[C@@H](CO)C(=O)O)C(C)C`, which IC50 is on record?
**A.** The IC50 was 42.5 µM.

**Q.** With `CC(C)C[C@H](NC(=O)[C@@H](NC(=O)[C@@H](N)CC(=O)N(C)OCc1ccccc1)C(C)C)C(=O)N[C@@H](CO)C(=O)O` as the compound, how does the IC50 read?
**A.** The IC50 was > 360 µM.

**Q.** For `CSCC[C@H](NC(=O)[C@@H](NC(=O)[C@@H](NC(=O)CC(=O)N(O)CC/C=C(\C)CC/C=C(\C)CCC=C(C)C)C(C)C)C(C)C)C(=O)O`, which IC50 is on record?
**A.** The IC50 was 5.6 µM.
